# Measurements taken from patent US20050137251A1, “Dexanabinol and dexanabinol analogs regulate inflammation related genes” (priority 2002, published 2005).
# How the values were obtained:
# [1] = tested on: PGE2 secretion; test: Inhibition of PGE2 secretion in LPS activated mouse macrophages (RAW 264.7); type: cell-based; settings: RAW264.7, LPS activated RAW 264.7 cells
# Method: The assay reproduces in vitro the true enzymatic activity, the test compounds, up to 10 μM, were preincubated for 5 minutes with purified COX-2, then the natural substrate AA was added and the reaction was allowed to proceed for 2 minutes. HCl was used to stop the enzyme catalysis and saturated stannous chloride was added to stabilize the PGH2 product into PGF2α.
# (§1) RAW 264.7 macrophages, a mouse cell line (ATCC # TIB 71), were grown in Dulbecco's modified Eagle's medium (DMEM) with 4 mM L-glutamine adjusted to contain 1.5 g/L sodium bicarbonate, 4.5 g/L glucose, and 10% heat inactivated fetal bovine serum. Cells were grown in tissue culture flasks and seeded at appropriate density into 24 wells tissue culture plates. 0.5×10^6 Raw cells in one milliliter were stimulated with 2 μg/ml Lipopolysaccharide E. coli 055:B5 (DIFCO Laboratories). The mouse macrophages were pre-treated for one hour with controls or 10 μM of dexanabinol and its analogs, unless indicated otherwise, and later on activated with LPS.
# [2] = tested on: COX-2 gene expression; test: COX-2 gene expression in LPS stimulated RAW 264.7 cells, real-time RT-PCR; type: cell-based, mouse; settings: 10 μM, 2.5 hrs after LPS activation
# Method: as §1
# The results of this experiment are expressed as fold activation of COX-2 over non-activated macrophages, after normalization to cyclophilin A expression. When cells are treated with vehicle only we observe a maximal 6-fold increase in COX-2 expression. A decrease of 67% in RNA levels of COX-2 is observed when the activation is carried out in presence of 10 μM dexanabinol.
# To test if COX-2 is the sole gene whose transcription is affected by compounds of the invention, additional genes were further analyzed by real-time RT-PCR in the above-described model of activated macrophages. This part of the study was performed with PRS-211,092 at doses up to 20 μM.
# [3] = tested on: IL-1β secretion; test: IL-1β secretion in LPS activated macrophages; type: cell-based; settings: Mus musculus, Macrophage, read-out: IC50 for inhibition of IL-1β secretion
# Text: The technique used to quantify the amount of a given protein in a liquid sample, either tissue culture supernatant or body fluid, is based on Enzyme Linked ImmunoSorbent Assay (ELISA) methodology. Either commercially available or established in house, the assay is based on the capture of the protein of interest by specific antibodies bound to the bottom of an ELISA plate well. Unbound material is washed away, the captured protein is then exposed to a secondary antibody generally labeled with horseradish peroxidase (HRP) or alkaline phosphatase (ALP). Again the unbound material is washed away, the samples are then incubated with the appropriate substrate yielding a colorimetric reaction. The reaction is stopped and reading is carried out in a spectrophotometer at the appropriate wavelength. Samples are tested at least in duplicate and the appropriate standard curve, consisting of serial dilutions of the recombinant target protein, is incorporated on each plate. Concentration of the protein in the sample is calculated from the standard curve.
# RAW 264.7 macrophages, a mouse cell line (ATCC # TIB 71), were grown in Dulbecco's modified Eagle's medium (DMEM) with 4 mM L-glutamine adjusted to contain 1.5 g/L sodium bicarbonate, 4.5 g/L glucose, and 10% heat inactivated fetal bovine serum. […]
# [4] = tested on: Panc-1; test: Panc-1 pancreatic tumor cell proliferation (crystal violet); type: cell-based; settings: Homo sapiens, 24 hours, read-out: Inhibition of Panc-1 cells proliferation
# Method: Cells from several tumor-derived cell lines are tested for their proliferation capacity in presence of our test compounds. Pancreatic tumor cell lines were obtained from ATCC. Panc-1 (ATCC # CRL-1469) were cultured in DMEM supplemented with 4 mM Glutamine, 4.5 g/L glucose, 1.5 g/L bicarbonate, antibiotics (penicillin, nystatin and streptomycin) and 10% heat inactivated fetal calf serum. Aspc-1 (ATCC # CRL-1682) were cultured in RPMI supplemented with 2 mM Glutamine, 10 mM HEPES, 1 mM sodium pyruvate, 4.5 g/L glucose, 1.5 g/L bicarbonate, antibiotics (penicillin, nystatin and streptomycin) and 20% heat inactivated fetal calf serum. Cells were seeded in a 24 well plate (10^5 cells/ml/well) and grown overnight. The cells are incubated with the test compounds (1-100 μM) or vehicle (0.1% DMSO final concentration). Cell viability was determined 24 hours later using standard crystal violet staining. The culture medium was removed from the wells and the cells were fixed by adding 1 ml/well of 2% formaldehyde in PBS for 10 minutes. […] The plates were agitated for 15 minutes at room temperature and 100 μl were transferred in duplicate to a 96 well plate for reading. Optical density (OD) of the cells was measured at 620 nm in an ELISA reader and results are expressed as % viable cells. Absorbance of untreated cells is recorded as 100%.
# [5] = tested on: IL-6 gene expression; test: IL-6 gene expression in MCAo mice brains; settings: 5 mg/kg i.v., 18 hrs following MCAo
# [6] = tested on: IL-10 gene expression; test: IL-10 gene expression in MCAo mice brains; settings: 5 mg/kg i.v., 18 hours of MCAo
smiles,measurement,setting,value
"CCCCCCC(C)(C)c1cc(O)c2c(c1)OC(C)(C)[C@H]1CC=C(CO)C[C@H]21 [dexanabinol, 1,1-dimethylheptyl-(3S,4S)-7-hydroxy-Δ^6-tetrahydrocannabinol]",IC50,[1],10 µM
same,Decrease in RNA levels of COX-2,[2],67%
same,IC50,[3],6 µM
same,inhibition at 15 µM,[4],26%
same,Modulation of IL-6 gene expression,[5],not modulated
same,Further increase of IL-10 gene expression vs vehicle,[6],4.4 fold
